From patent US10525139B2, “Folate-conjugated molecules for delivery of toxic small molecule inhibitors to cancer cells and methods of use” (priority 2014, dated 2020) come the findings set out here.

Entries after “also recorded” stand apart in the source; their conditions may differ.

One data set deals with T1, SERCA2 (Homo sapiens, UniProt P16615).
T1 construct: Lysates from T-ALL cells (ALL/SIL) were co-treated with the indicated concentrations of biotinylated thapsigargin or Thap-OH; endogenous in cells; host or cells: ALL/SIL T-ALL cells (lysate)
Nature of the data set: Competitive pull-down with Thap-Biotin in T-ALL lysates, immunoblot. The data set is classed as binding. As to conditions: ALL/SIL lysates, increasing concentrations of free Thap-OH. As for the experimental part: (§1) Lysates from T-ALL cells (ALL/SIL) were co-treated with the indicated concentrations of biotinylated thapsigargin or Thap-OH for 6 hours and subjected to streptavidin pulldown for 24 hours. The immunoblot was stained with SERCA2 and SERCA3 antibodies. […] Statistical significance for mutated vs WT (*P≤:0.05, **P≤0.01) was determined by one-way ANOVA with Bonferroni's correction for multiple comparison testing. […] NOTCH1 (N1) was detected with an antibody against the C-terminus of NOTCH1 that recognizes the […] NOTCH1 transmembrane subunit (TM) and the unprocessed NOTCH1 precursor (FL). GAPDH was used as loading control. […] Immunoblot was stained with an antibody against FR2. Vinculin was used as a loading control.
(§2) To test the hypothesis that Thap-OH targets SERCA in T-ALL cells, we first performed a competitive pull-down assay in which protein lysates were treated with a novel biotinylated derivative of thapsigargin (Thap-Biotin), alone or in the presence of increasing concentrations of free, competitive Thap-OH.

The target in the next data set is T2, SERCA3 (Homo sapiens, UniProt Q93084).
T2 construct: Lysates from T-ALL cells (ALL/SIL) were co-treated with the indicated concentrations of biotinylated thapsigargin or Thap-OH; endogenous in cells; host or cells: ALL/SIL T-ALL cells (lysate)
The data set is described as above. The class given is binding. As to conditions: ALL/SIL lysates, increasing concentrations of free Thap-OH. The method, then: as §1, §2

Data set [1] relates to NOTCH1. Nature of the data set: NOTCH1 cell surface staining by flow cytometry. The data set is classed as cell-based, human. As to conditions: T-ALL cells; for NOTCH1 expression on the cell surface: 24 hours. The text has this:
(§3) We previously described that the SERCA inhibitors thapsigargin and cyclopiazonic acid impair NOTCH1 maturation leading to an accumulation of full-length, unprocessed polypeptides in the endoplasmic reticulum/Golgi subcellular compartment. An immediate consequence of SERCA inhibition is a decrement in NOTCH1 protein display on the surface of T-ALL cells. […] To further support the hypothesis that Thap-OH impairs mutant NOTCH1 maturation, we evaluated levels of full-length, transmembrane and activated NOTCH1 (ICN1) by WB. Lysates from T-ALL cell lines treated with 1 μM Thap-OH were immunoblotted with an antibody specific for the cytoplasmic portion of NOTCH1 that recognizes both unprocessed NOTCH1 (FL-N1) (˜270 kDa) and the furin-processed transmembrane subunit (TM-N1) (˜110 kDa).
(§4) The NOTCH loss was measured via flow cytometry. […] The recapitulation of the thapsigargin effect by JQ-FT is hypothesized to be due to the delivery strategy introduced by folate. […] Here cell growth was assessed using the Promega Cell-Titer Glo ATP-based assay (Promega, Madison, Wis., USA). Luminescence was measured using a Fluostar Omega instrument (BMG-labtech, Ortenberg, Germany).
(Flow cytometry measures light scatter and fluorescence of single cells or particles in a stream.)

Data set [2] concerns NOTCH1. The experiment in a line: NOTCH1 processing and activation by western blot (FL-N1, TM-N1, ICN1). The class given is cell-based, human.
Source text: as §3
Both Folate-Thap (JQ-FT) and Thap-OH were tested in T-ALL cell lines with 24 h treatment. […] Lysates were prepared after treatment with indicated doses of thapsigargin, JQ-FT or Thap-OH for 24 hr. The blot shown was stained with an antibody against the C-terminus of NOTCH1 that recognizes both the furin-processed NOTCH1 transmembrane subunit (TM) and the unprocessed NOTCH1 precursor (FL) (FIG. 2A). GAPDH was used as a loading control. Western blots were stained with antibodies specific for γ-secretase-cleaved NOTCH 1 ([…], Cell Signaling, Beverly, Mass., USA), or the C-terminus of NOTCH1 (SC-6014 (C-20) Santa Cruz Biotechnology, Santa Cruz, Calif., USA). Control stains were carried out with antibodies specific for GAPDH (137179, Santa Cruz Biotechnology). Blots were developed with anti-rabbit-HRP (NA9340V, Amersham, Pittsburgh, Pa., USA) or anti-mouse-HRP (NA9340V or NA9310V, Amersham). Staining was quantified using ImageQuant TI V 7.0 (GE Health Care, Piscataway, N.J., USA).
Background: A western blot detects proteins with antibodies after separation by electrophoresis.

Data set [3] has as its system T-ALL cell lines. The experiment in a line: T-ALL cell viability / growth (ATP content, Cell-Titer Glo). The class given is cell-based, human. As to conditions: 72 hours. The method, then:
Thus, cell lines carrying NOTCH1 alleles with HD domain, mutations were more sensitive to Thap-OH than cells with WT NOTCH1 alleles.
As a further test of the idea that JQ-FT acts by preventing NOTCH1 activation in a manner similar to thapsigargin, the NOTCH1-dependent T-ALL cell lines RPMI-8402 were transduced with empty MigRI vector or with ICN1, which lies downstream of the γ-secretase cleavage step in Notch activation. Viral supernatant production and retroviral infections were performed as described for MigRI retroviral vectors (Aster, J. C., et al. “Essential roles for ankyrin repeat and transactivation domains in induction of T-cell leukemia by NOTCH1.” Mol. Cell. Biol. 2000; 20:7505-7515). Transduction efficiency for MigRI was monitored by assessing GFP expression with a FACScan flow cytometer (BD, Franklin Lakes, N.J., USA) (Aster et al., Mol. Cell. Biol. 2000; 20:7505-7515). After viral infection, GFP-positive cells were sorted by flow cytometry with a FACSAria II (BD, Franklin Lakes, N.J., USA). […] Therefore, JQ-FT can recapitulate the Thapsigargin effect with the delivery mechanism of folate.
as §4
The effects of JQ-FT in a panel of T-ALL cell lines that contain activating mutations in the HD domain of NOTCH1 and/or protein stabilizing deletions within the PEST degradation domain.

The subject of another data set is FR2. Nature of the data set: FR2 expression by western blot after Thap-OH. The data set is classed as cell-based, human. As to conditions: T-ALL cell lines, increasing concentrations of Thap-OH, 24 hours. The method, then: Thapsigargin is a known inducer of the unfolded protein response (UPR). As such, its derivatives may trigger a cellular response that affects the stable expression or trafficking of folate receptors. To exclude that FR2 is a target of UPR, we treated T-ALL cell lines with increasing concentrations of Thap-OH for 24 hours.

Data set [4] in a line: LCMS analysis of cell lysate and media. As to conditions: only after cells were treated with FT. The data set is classed as in vitro ADME. The method, then:
In order to validate the delivery of the Thap-OH, LCMS analysis of the cell lysate and the media was used to detect the presence of both Folate-Thap (FT) and Thap-OH. […] To directly visualize the folate delivery of a small molecule, folic acid derivatives with appended fluorophores were designed. Both Folate-FITC, suitable for flow cytometry studies, and Folate-TMARA, suitable for high-throughput fluorescence plate readers, were evaluated in vitro to determine the delivery mechanism.

Data set [5] concerns T-ALL cell lines. Nature of the data set: Uptake of fluorescent folate probes by flow cytometry in T-ALL cells. The data set is classed as cell-based, human. The text has this: To assess functional engagement of the folate receptor on T-ALL cells, we generated fluorescence-ragged folic acid probes. FL-TAMRA and FL-FITC, as tool compounds (FIG. 7, panel c). […] Taken together, these observations indicate that functional FR2 expression is increased in T-ALL compared to normal cells, further supporting a rationale for folate-mediated delivery in leukemia.
To explore the mechanism of binding and delivery of folate-conjugates in T-ALL, we performed competition and temperature sensitivity studies of the FL-FITC probe. The T-ALL cell Sine RPMI 8402 was engineered to overexpress either FR1 or FR2 and was then treated with increasing concentrations of FL-FITC. […] We next addressed whether folic acid could compete with the FL-FITC probe for uptake. T-ALL cells were grown in medium depleted of folic acid for 48 hours, treated with FL-FITC (1 or 10 μM), and assessed by flow cytometry. […]
In order to validate the delivery of the Thap-OH, LCMS analysis of the cell lysate and the media was used to detect the presence of both Folate-Thap (FT) and Thap-OH. […] Both Folate-FITC, suitable for flow cytometry studies, and Folate-TMARA, suitable for high-throughput fluorescence plate readers, were evaluated in vitro to determine the delivery mechanism.

T1 sequence (P16615 whole entry): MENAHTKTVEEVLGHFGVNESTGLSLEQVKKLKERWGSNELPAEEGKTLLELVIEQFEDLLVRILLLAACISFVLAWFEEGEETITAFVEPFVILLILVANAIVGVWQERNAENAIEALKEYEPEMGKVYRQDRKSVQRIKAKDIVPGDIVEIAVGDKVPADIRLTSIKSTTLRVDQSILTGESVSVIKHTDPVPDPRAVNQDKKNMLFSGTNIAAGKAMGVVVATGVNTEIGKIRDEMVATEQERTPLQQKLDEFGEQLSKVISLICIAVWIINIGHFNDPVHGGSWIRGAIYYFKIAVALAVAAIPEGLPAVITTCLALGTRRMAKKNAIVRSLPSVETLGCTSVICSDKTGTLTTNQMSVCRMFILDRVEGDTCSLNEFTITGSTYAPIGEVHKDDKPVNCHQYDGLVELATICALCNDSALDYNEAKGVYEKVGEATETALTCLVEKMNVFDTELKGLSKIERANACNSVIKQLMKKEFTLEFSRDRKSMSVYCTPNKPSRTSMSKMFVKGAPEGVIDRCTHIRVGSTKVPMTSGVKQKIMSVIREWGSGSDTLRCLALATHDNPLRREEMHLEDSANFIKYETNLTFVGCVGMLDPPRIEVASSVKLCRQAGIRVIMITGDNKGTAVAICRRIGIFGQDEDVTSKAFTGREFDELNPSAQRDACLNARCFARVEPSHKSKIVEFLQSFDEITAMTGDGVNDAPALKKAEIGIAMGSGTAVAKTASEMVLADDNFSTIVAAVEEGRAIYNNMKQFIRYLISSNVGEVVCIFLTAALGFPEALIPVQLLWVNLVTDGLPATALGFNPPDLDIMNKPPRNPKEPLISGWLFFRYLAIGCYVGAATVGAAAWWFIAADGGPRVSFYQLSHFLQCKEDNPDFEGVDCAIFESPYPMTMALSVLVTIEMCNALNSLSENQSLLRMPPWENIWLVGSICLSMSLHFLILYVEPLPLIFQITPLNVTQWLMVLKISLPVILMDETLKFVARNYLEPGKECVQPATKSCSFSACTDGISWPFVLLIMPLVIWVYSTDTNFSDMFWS
T2 sequence (Q93084 whole entry): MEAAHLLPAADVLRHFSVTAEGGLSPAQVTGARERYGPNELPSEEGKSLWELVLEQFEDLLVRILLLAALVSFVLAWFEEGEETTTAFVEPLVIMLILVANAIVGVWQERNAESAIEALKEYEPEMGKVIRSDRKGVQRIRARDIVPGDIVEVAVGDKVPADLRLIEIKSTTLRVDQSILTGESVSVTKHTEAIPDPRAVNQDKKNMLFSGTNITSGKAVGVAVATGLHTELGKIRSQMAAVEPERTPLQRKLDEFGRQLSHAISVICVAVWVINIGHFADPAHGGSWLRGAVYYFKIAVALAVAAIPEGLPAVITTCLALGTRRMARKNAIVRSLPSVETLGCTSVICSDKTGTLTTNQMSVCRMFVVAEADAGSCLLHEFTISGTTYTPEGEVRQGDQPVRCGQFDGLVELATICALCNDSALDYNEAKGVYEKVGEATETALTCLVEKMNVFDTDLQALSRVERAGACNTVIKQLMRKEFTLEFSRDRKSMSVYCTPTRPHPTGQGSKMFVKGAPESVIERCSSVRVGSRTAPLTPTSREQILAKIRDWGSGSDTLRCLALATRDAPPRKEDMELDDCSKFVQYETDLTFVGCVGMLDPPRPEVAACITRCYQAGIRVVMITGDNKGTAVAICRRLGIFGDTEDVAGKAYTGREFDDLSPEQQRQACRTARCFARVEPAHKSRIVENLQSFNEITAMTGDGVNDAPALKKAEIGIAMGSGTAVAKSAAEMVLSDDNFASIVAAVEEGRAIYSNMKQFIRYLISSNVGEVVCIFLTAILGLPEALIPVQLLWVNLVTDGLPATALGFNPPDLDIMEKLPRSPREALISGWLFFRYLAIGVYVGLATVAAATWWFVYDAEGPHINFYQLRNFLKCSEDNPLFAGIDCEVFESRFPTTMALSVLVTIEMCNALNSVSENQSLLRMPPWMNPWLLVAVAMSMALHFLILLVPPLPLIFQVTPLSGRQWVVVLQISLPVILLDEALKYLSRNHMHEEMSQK

Take `C/C=C(/C)C(=O)O[C@H]1C(C)=C2[C@H]([C@@H]1OC(=O)CCCCCCC)[C@@](C)(OC(C)=O)C[C@H](O)[C@@]1(O)[C@H]2OC(=O)[C@@]1(C)O` [Thap-OH, 8-O-debutanoylthapsigargin]: at SERCA2, the “competition with biotinylated thapsigargin for SERCA2” value is listed as “competed off biotinylated thapsigargin”. Moreover, on SERCA3, the “competition with biotinylated thapsigargin for SERCA3” value is given as “competed off biotinylated thapsigargin”. In addition, in the data set on NOTCH1 [1], the “effect on cell surface NOTCH1 compared with thapsigargin” value was “less potent than the natural product; also recorded: reduced effect” and the “NOTCH1 expression on the cell surface” value is “concentration-dependent reduction in NOTCH1 expression on the cell surface; also recorded: show NOTCH loss”. Also, in the data set with NOTCH1 [2] (T-ALL cell lines with HD mutations, 24 h, Thap-OH at 1 μM), the “furin-processed transmembrane NOTCH1 subunit (TM-N1) level” value was “reduced the levels of the furin-processed transmembrane NOTCH1 subunit”. For the same molecule, in the data set with NOTCH1 [2] (T-ALL cell lines, 24 h), the ICN1 level result is “decreased ICN1 levels” and the “unprocessed full-length NOTCH1 (FL-N1) level” value is given as “not the unprocessed full-length NOTCH1 precursor”. Moreover, the “activity on NOTCH1 processing relative to JQ-FT” value with NOTCH1 [2] (T-ALL cell lines, 24 h treatment) was “much lower activity”. The “NOTCH1 maturation in NOTCH1 WT cell lines” value in the data set on NOTCH1 [2] (WT cell lines (Loucy, MOLT16), concentrations tested) is given as “no effect on NOTCH1 maturation in the WT cell lines”. For the same molecule, the T-ALL cell viability result with T-ALL cell lines [3] (Thap-OH, dose-ranging ATP content assays) was “decrease in T-ALL cell viability”. The “sensitivity of NOTCH1 mutant versus WT T-ALL cells” value in the data set with T-ALL cell lines [3] (mutated (ALL/SIL, DND41, PF382, RPMI 8402) vs WT (Loucy, MOLT16, SUPT11)) is “mutant T-ALL cells were more sensitive to the effects of Thap-OH than NOTCH1 WT cells”. For the same molecule, the FR2 expression entry in the data set on FR2 is “No change in FR2 expression”. The “detection of released Thap-OH in cell lysate” value in data set [4] is “detected in cell lysate”.

Turning to `CCCCC[C@@H](O)[C@H]1C(=O)O[C@H](C)[C@@H](O)/C=C/C=C/C=C/C=C/C=C(\C)[C@@H](O)C[C@H](O)C[C@H](O)C[C@H](O)C[C@H](O)C[C@H](O)C[C@@H]1O` [filipin], the “mean percentage reduction of FITC fluorescence signal” value in the data set with T-ALL cell lines [5] (four T-ALL cell lines pretreated with 10 μM filipin, 10 μM FL-FITC) came to 38.9±2.5 percentage.

With `Nc1nc2ncc(CNc3ccc(C(=O)N[C@@H](CCC(=O)O)C(=O)O)cc3)nc2c(=O)[nH]1` [folic acid], in the data set with T-ALL cell lines [5] (free folic acid added to T-ALL culture), the “competition of free folic acid with folate derivatives for uptake” value is reported as “competed away the folate derivatives; also recorded: competes with folate-FITC”.

`C/C=C(/C)C(=O)O[C@H]1C(C)=C2[C@H]([C@@H]1OC(=O)CCCCCCC)[C@@](C)(OC(C)=O)C[C@H](OC(=O)CCC)[C@@]1(O)[C@H]2OC(=O)[C@@]1(C)O` [thapsigargin, Thapsigargin, reference compound]: in the data set on NOTCH1 [1], the “NOTCH1 expression on the cell surface” value is “concentration-dependent reduction in NOTCH1 expression on the cell surface”.
